What was measured:
Hep3B = assay: MTT assay, Hep 3B cells; assay type: cell-based; details: Homo sapiens
Experimental: (§1) MTT (3-(4,5-Dimethylthiazol-2-yl)-2,5-diphenyltetrazolium bromide) assays.^21,22 HL-60, HCT-116, Hep 3B, H460, Detroit 551 and HT29/FuR cells were treated with tested compounds for the indicated periods. After treatment, cells were washed once with PBS and incubated with MTT (Sigma, St. Louis, Mo., USA) for 2 h. The formazan precipitate was dissolved in 150 μL of DMSO, and the absorbance was measured with an ELISA reader at 570 nm.
(§2) HL-60, Hep 3B, H460, MES-SA, MES-SAID x5 and Detroit 551 cells were treated with vehicle or test compounds for 48 h. The cell growth rate was determined by MTT (3-(4,5-dimethyl-thiazol-2-yl)-2,5-diphenyltetrazoliun bromide) reduction assay.
(§3) MTT (3-(4,5-Dimethylthiazol-2-yl)-2,5-diphenyltetrazolium bromide) assays. HL-60, HCT-116, A549, Hep 3B, KB, Kb-VIN and DU145 cells were treated with tested compounds for the indicated periods. After treatment, cells were washed once with PBS and incubated with MTT (Sigma, St. Louis, Mo., USA) for 2 h. The formazan precipitate was dissolved in 150 μL of DMSO, and the absorbance was measured with an ELISA reader at 570 nm.
(§4) MTT (3-(4,5-Dimethylthiazol-2-yl)-2,5-diphenyltetrazolium bromide) assays. HL-60, Hep 3B, H460, A498, Colo205 and Detroit 551 cells were treated with tested compounds for the indicated periods. After treatment, cells were washed once with PBS and incubated with MTT (Sigma, St. Louis, Mo., USA) for 2 h. The formazan precipitate was dissolved in 150 μL of DMSO, and the absorbance was measured with an ELISA reader at 570 nm.

HCT116 = assay: MTT assay, HCT-116 cells; assay type: cell-based; details: Homo sapiens, Table 1, 48 h
Experimental: as §1, §3

HT29/5FuR = assay: MTT assay, HT29/5FuR cells; assay type: cell-based; details: Homo sapiens, HT-29, Table 1, 48 h
Experimental: as §1

Detroit 551 = assay: MTT assay, Detroit 551 normal human cells; assay type: cell-based; details: for IC50: Detroit 551; for toxicity toward Detroit 551 normal human cell (in words): Table 1 compounds
Experimental: as §1, §2, §4

H460 = assay: MTT assay, H460 cells; assay type: cell-based; details: Homo sapiens, NCI-H460
Experimental: as §1, §2, §4

HL-60 = assay: MTT assay, HL-60 cells; assay type: cell-based; details: Homo sapiens
Experimental: as §1, §2, §3, §4

[1] = tested on: HL-60, HCT-116, Hep3B, H-460; assay: Cytotoxicity screen (MTT) against human cancer cell lines, results in words; assay type: cell-based; details: comparison within sub-series or with CHM-2133
Experimental: as §1, §2

[2] = Table 1, 48 h, MTT, normal human cell
[3] = Homo sapiens, Table 2, B-1 series, 48 hrs
[4] = Homo sapiens, Table 3, B-2 series, 48 hrs
[5] = Homo sapiens, Table 4, B-3 series, 48 hrs

SMILES	IC50 (Hep3B; Table 1, 48 h, MTT)	IC50 (HCT116)	IC50 (HT29/5FuR)	IC50 (Detroit 551; [2])	IC50 (H460; Table 1, 48 h, MTT)	IC50 (HL-60; Table 1, 48 h, MTT)	melting point	cytotoxicity (in words) [1]	other results
COc1ccc2c(c1OC)C(=O)CC(c1ccccc1F)=N2 [Compound 16, 2-(2-Fluorophenyl)-5,6-dimethoxyquinolin-4-one]	> 20 µM	> 20 µM	2.03 µM	> 20 µM	> 20 µM	3.7 µM			
COc1ccc2c(c1OC)C(=O)CC(c1cccc(F)c1)=N2 [Compound 17, 2-(3-Fluorophenyl)-5,6-dimethoxyquinolin-4-one]	2.6 µM	1.2 µM	1.96 µM	100 µM	3.5 µM	1.3 µM	190 to 192 °C	strongest cytotoxicity	
COc1ccc2c(c1OC)C(=O)CC(c1ccc(F)cc1)=N2 [Compound 18, 2-(4-Fluorophenyl)-5,6-dimethoxyquinolin-4-one]	> 20 µM	> 20 µM	2.02 µM	> 20 µM	> 20 µM	2 µM	227 to 229 °C	weaker	
O=C1CC(c2ccccc2F)=Nc2ccc3c(c21)OCO3 [Compound 19, 2-(2-Fluorophenyl)-5,6-methylenedioxyquinolin-4-one]	1.9 µM	2.1 µM	0.69 µM	> 10 µM	4.5 µM	1 µM	282 to 283 °C	significant cytotoxicity	
COc1ccc2c(c1O)C(=O)CC(c1ccccc1F)=N2 [Compound 37, 2-(2-Fluorophenyl)-5-hydroxy-6-methoxyquinolin-4-one]	0.05 µM	0.05 µM	0.2 µM	10 µM	0.11 µM	0.067 µM		greater cytotoxicity	toxicity toward Detroit 551 normal human cell (in words) (Detroit 551): lower toxicity
COc1ccc2c(c1O)C(=O)CC(c1cccc(F)c1)=N2 [Compound 38, 2-(3-Fluorophenyl)-5-hydroxy-6-methoxyquinolin-4-one]	0.078 µM	0.073 µM	0.26 µM	> 50 µM	0.088 µM	0.039 µM		greater cytotoxicity	toxicity toward Detroit 551 normal human cell (in words) (Detroit 551): lower toxicity
COc1ccc2c(c1O)C(=O)CC(c1ccc(F)cc1)=N2 [Compound 39, 2-(4-Fluorophenyl)-5-hydroxy-6-methoxyquinolin-4-one]	11 µM	2.4 µM	0.33 µM	> 25 µM	8.8 µM	1.8 µM		weaker	
O=C1CC(c2ccccc2F)=Nc2ccc(O)c(O)c21 [Compound 40, 2-(2-Fluorophenyl)-5,6-dihydroxyquinolin-4-one]	3.9 µM	0.6 µM	1.63 µM	> 100 µM	4.1 µM	0.5 µM		greater cytotoxicity	
O=C1CC(c2cccc(F)c2)=Nc2ccc(O)c(O)c21 [Compound 41, 2-(3-Fluorophenyl)-5,6-dihydroxyquinolin-4-one]	6.9 µM	8.2 µM	0.53 µM	> 100 µM	6.1 µM	0.3 µM		greater cytotoxicity	
O=C1CC(c2ccc(F)cc2)=Nc2ccc(O)c(O)c21 [Compound 42, 2-(4-Fluorophenyl)-5,6-dihydroxyquinolin-4-one]	100 µM	> 100 µM		> 100 µM	100 µM	38.6 µM		weaker	
COc1ccc(C2=Nc3ccc(N4CCOCC4)cc3C(=O)C2)cc1 [Compound 132, 2-(4-Methoxyphenyl)-6-morpholinoquinolin-4-one]							302 to 304 °C		IC50 (Hep3B; Table 2, B-1 series, 48 hrs): > 2.5 µM; IC50 (Detroit 551; [3]): > 2.5 µM; IC50 (H460; Table 2, B-1 series, 48 hrs): > 2.5 µM; IC50 (HL-60; Table 2, B-1 series, 48 hrs): > 2.5 µM
COc1ccc(C2=Nc3ccc(N4CCCC4)cc3C(=O)C2)cc1 [Compound 133, 2-(4-Methoxyphenyl)-6-pyrrolidinoquinolin-4-one]							312 to 313 °C		IC50 (Hep3B; Table 3, B-2 series, 48 hrs): > 1 µM; IC50 (Detroit 551; [4]): > 1 µM; IC50 (H460; Table 3, B-2 series, 48 hrs): > 1 µM; IC50 (HL-60; Table 3, B-2 series, 48 hrs): > 1 µM
CN(C)c1ccc2c(c1)C(=O)CC(c1ccccc1O)=N2 [Compound 136, 2-(2-Hydroxyphenyl)-6-dimethylaminoquinolin-4-one]							296 to 298 °C		IC50 (Hep3B; Table 4, B-3 series, 48 hrs): 7.1 µM; IC50 (Detroit 551; [5]): 100 µM; IC50 (H460; Table 4, B-3 series, 48 hrs): 5.4 µM; IC50 (HL-60; Table 4, B-3 series, 48 hrs): 3.02 µM
O=C1CC(c2ccc(O)cc2)=Nc2ccc(N3CCOCC3)cc21 [Compound 140, 2-(4-Hydroxyphenyl)-6-morpholinoquinolin-4-one]							340 to 342 °C		IC50 (Hep3B; Table 2, B-1 series, 48 hrs): > 10 µM; IC50 (H460; Table 2, B-1 series, 48 hrs): > 10 µM; IC50 (HL-60; Table 2, B-1 series, 48 hrs): 1.64 µM
O=C1CC(c2ccc(O)cc2)=Nc2ccc(N3CCCC3)cc21 [Compound 141, 2-(4-Hydroxyphenyl)-6-pyrrolidinoquinolin-4-one]							304 to 306 °C		IC50 (Hep3B; Table 3, B-2 series, 48 hrs): 1.1 µM; IC50 (Detroit 551; [4]): > 25 µM; IC50 (H460; Table 3, B-2 series, 48 hrs): 1.56 µM; IC50 (HL-60; Table 3, B-2 series, 48 hrs): 0.04 µM
CN(C)c1ccc2c(c1)C(=O)CC(c1ccc(O)cc1)=N2 [Compound 142, 2-(4-Hydroxyphenyl)-6-dimethylaminoquinolin-4-one]							321 to 323 °C		IC50 (Hep3B; Table 4, B-3 series, 48 hrs): 9 µM; IC50 (Detroit 551; [5]): 75 µM; IC50 (H460; Table 4, B-3 series, 48 hrs): 0.56 µM; IC50 (HL-60; Table 4, B-3 series, 48 hrs): 0.64 µM
COc1cc(C2=Nc3ccc(N4CCOCC4)cc3C(=O)C2)ccc1O [Compound 143, 2-(4-Hydroxy-3-methoxyphenyl)-6-morpholinoquinolin-4-one]							297 to 299 °C		IC50 (Hep3B; Table 2, B-1 series, 48 hrs): 50 µM; IC50 (Detroit 551; [3]): 50 µM; IC50 (H460; Table 2, B-1 series, 48 hrs): 50 µM; IC50 (HL-60; Table 2, B-1 series, 48 hrs): 3.9 µM
COc1ccc(O)cc1C1=Nc2ccc(N3CCOCC3)cc2C(=O)C1 [Compound 143a, 2-(5-hydroxy-2-methoxyphenyl)-6-morpholinoquinolin-4-one]									IC50 (Hep3B; Table 2, B-1 series, 48 hrs): > 100 µM; IC50 (Detroit 551; [3]): > 100 µM; IC50 (H460; Table 2, B-1 series, 48 hrs): 84.8 µM; IC50 (HL-60; Table 2, B-1 series, 48 hrs): 93.8 µM
COc1ccc(O)cc1C1=Nc2ccc(N3CCCC3)cc2C(=O)C1 [Compound 143b, 2-(5-hydroxy-2-methoxyphenyl)-6-pyrrolidinoquinolin-4-one]									IC50 (Hep3B; Table 2, B-1 series, 48 hrs): 59.3 µM; IC50 (Detroit 551; [3]): > 100 µM; IC50 (H460; Table 2, B-1 series, 48 hrs): > 100 µM; IC50 (HL-60; Table 2, B-1 series, 48 hrs): 56.2 µM
COc1cc(C2=Nc3ccc(N4CCCC4)cc3C(=O)C2)ccc1O [Compound 144, 2-(4-Hydroxy-3-methoxyphenyl)-6-pyrrolidinoquinolin-4-one]							310 to 312 °C		IC50 (Hep3B; Table 3, B-2 series, 48 hrs): 0.38 µM; IC50 (Detroit 551; [4]): > 2.5 µM; IC50 (H460; Table 3, B-2 series, 48 hrs): 0.56 µM; IC50 (HL-60; Table 3, B-2 series, 48 hrs): 0.038 µM

From patent US8524740B2, “Synthesis and anticancer activity of aryl and heteroaryl-quinolin derivatives” (Tairx, Inc., priority 2010, dated 2013)
